Laboratory results from ChEMBL document CHEMBL2346657, “Synthesis of novel 2-amino-4-(5'-substituted 2'-phenyl-1H-indol-3'-yl)-6-aryl-4H-pyran-3-carbonitrile derivatives as antimicrobial and antioxidant agents” (2013).
Active and inactive are the calls of the source.

System: Escherichia coli
Experiment: Antimicrobial activity against Escherichia coli MTCC 723 at 500 ug/ml after 24 hrs by cup plate method
Format: functional
Conditions: MTCC 723, 24 h, read-out: IZ

Row | Compound | zone of inhibition at 500 µg/mL [mm]
1 | Nc1nc(=O)[nH]c2c1C(c1c(-c3ccccc3)[nH]c3ccc(Cl)cc13)C=C(c1ccc(Cl)cc1)O2 (configuration not stated) | 9

System: Pseudomonas aeruginosa
Experiment: Antimicrobial activity against Pseudomonas aeruginosa MTCC 1688 at 750 ug/ml after 24 hrs by cup plate method
Format: functional
Conditions: MTCC 1688, 24 h, read-out: IZ

Row | Compound | zone of inhibition at 750 µg/mL [mm]
2 | Nc1nc(=O)[nH]c2c1C(c1c(-c3ccccc3)[nH]c3ccc(Cl)cc13)C=C(c1ccc(Cl)cc1)O2 (configuration not stated) | 9

System: Escherichia coli
Experiment: Antimicrobial activity against Escherichia coli MTCC 723 at 1000 ug/ml after 24 hrs by cup plate method
Format: functional
Conditions: MTCC 723, 24 h, read-out: IZ

Row | Compound | zone of inhibition at 1000 µg/mL [mm]
3 | Nc1nc(=O)[nH]c2c1C(c1c(-c3ccccc3)[nH]c3ccc(Cl)cc13)C=C(c1ccc(Cl)cc1)O2 (configuration not stated) | 10

System: Aspergillus flavus
Experiment: Antimicrobial activity against Aspergillus flavus MTCC 1973 at 1000 ug/ml after 72 hrs by cup plate method
Format: functional
Conditions: MTCC 1973, 72 h, read-out: IZ

Row | Compound | zone of inhibition at 1000 µg/mL [mm]
4 | Nc1nc(=O)[nH]c2c1C(c1c(-c3ccccc3)[nH]c3ccc(Cl)cc13)C=C(c1ccc(Cl)cc1)O2 (configuration not stated) | 4

System: Aspergillus flavus
Experiment: Antimicrobial activity against Aspergillus flavus MTCC 1973 at 500 ug/ml after 72 hrs by cup plate method
Format: functional
Conditions: MTCC 1973, 72 h, read-out: IZ

Row | Compound | zone of inhibition at 500 µg/mL [mm]
5 | Nc1nc(=O)[nH]c2c1C(c1c(-c3ccccc3)[nH]c3ccc(Cl)cc13)C=C(c1ccc(Cl)cc1)O2 (configuration not stated) | 6

System: Aspergillus niger
Experiment: Antimicrobial activity against Aspergillus niger MTCC 281 at 500 ug/ml after 72 hrs by cup plate method
Format: functional
Conditions: MTCC 281, 72 h, read-out: IZ

Row | Compound | zone of inhibition at 500 µg/mL [mm]
6 | Nc1nc(=O)[nH]c2c1C(c1c(-c3ccccc3)[nH]c3ccc(Cl)cc13)C=C(c1ccc(Cl)cc1)O2 (configuration not stated) | 12

System: Aspergillus oryzae
Experiment: Antimicrobial activity against Aspergillus oryzae MTCC 3567 at 750 ug/ml after 72 hrs by cup plate method
Format: functional
Conditions: MTCC 3567, 72 h, read-out: IZ

Row | Compound | zone of inhibition at 750 µg/mL [mm]
7 | Nc1nc(=O)[nH]c2c1C(c1c(-c3ccccc3)[nH]c3ccc(Cl)cc13)C=C(c1ccc(Cl)cc1)O2 (configuration not stated) | 9

System: Aspergillus niger
Experiment: Antimicrobial activity against Aspergillus niger MTCC 281 at 750 ug/ml after 72 hrs by cup plate method
Format: functional
Conditions: MTCC 281, 72 h, read-out: IZ

Row | Compound | zone of inhibition at 750 µg/mL [mm]
8 | Nc1nc(=O)[nH]c2c1C(c1c(-c3ccccc3)[nH]c3ccc(Cl)cc13)C=C(c1ccc(Cl)cc1)O2 (configuration not stated) | 12

System: Klebsiella pneumoniae
Experiment: Antimicrobial activity against Klebsiella pneumoniae NCTC 13368 at 750 ug/ml after 24 hrs by cup plate method
Format: functional
Conditions: NCTC 13368, 24 h, read-out: IZ

Row | Compound | zone of inhibition at 750 µg/mL [mm]
9 | Nc1nc(=O)[nH]c2c1C(c1c(-c3ccccc3)[nH]c3ccc(Cl)cc13)C=C(c1ccc(Cl)cc1)O2 (configuration not stated) | 9

System: Aspergillus terreus
Experiment: Antimicrobial activity against Aspergillus terreus MTCC 1782 at 750 ug/ml after 72 hrs by cup plate method
Format: functional
Conditions: MTCC 1782, 72 h, read-out: IZ

Row | Compound | zone of inhibition at 750 µg/mL [mm]
10 | Nc1nc(=O)[nH]c2c1C(c1c(-c3ccccc3)[nH]c3ccc(Cl)cc13)C=C(c1ccc(Cl)cc1)O2 (configuration not stated) | 9

System: Aspergillus oryzae
Experiment: Antimicrobial activity against Aspergillus oryzae MTCC 3567 at 500 ug/ml after 72 hrs by cup plate method
Format: functional
Conditions: MTCC 3567, 72 h, read-out: IZ

Row | Compound | zone of inhibition at 500 µg/mL [mm]
11 | Nc1nc(=O)[nH]c2c1C(c1c(-c3ccccc3)[nH]c3ccc(Cl)cc13)C=C(c1ccc(Cl)cc1)O2 (configuration not stated) | 9

System: Staphylococcus aureus
Experiment: Antimicrobial activity against Staphylococcus aureus ATCC 29513 at 1000 ug/ml after 24 hrs by cup plate method
Format: functional
Conditions: ATCC 29513, 24 h, read-out: IZ

Row | Compound | zone of inhibition at 1000 µg/mL [mm]
12 | Nc1nc(=O)[nH]c2c1C(c1c(-c3ccccc3)[nH]c3ccc(Cl)cc13)C=C(c1ccc(Cl)cc1)O2 (configuration not stated) | 14

System: Escherichia coli
Experiment: Antimicrobial activity against Escherichia coli MTCC 723 at 750 ug/ml after 24 hrs by cup plate method
Format: functional
Conditions: MTCC 723, 24 h, read-out: IZ

Row | Compound | zone of inhibition at 750 µg/mL [mm]
13 | Nc1nc(=O)[nH]c2c1C(c1c(-c3ccccc3)[nH]c3ccc(Cl)cc13)C=C(c1ccc(Cl)cc1)O2 (configuration not stated) | 10

System: Aspergillus oryzae
Experiment: Antimicrobial activity against Aspergillus oryzae MTCC 3567 at 1000 ug/ml after 72 hrs by cup plate method
Format: functional
Conditions: MTCC 3567, 72 h, read-out: IZ

Row | Compound | zone of inhibition at 1000 µg/mL [mm]
14 | Nc1nc(=O)[nH]c2c1C(c1c(-c3ccccc3)[nH]c3ccc(Cl)cc13)C=C(c1ccc(Cl)cc1)O2 (configuration not stated) | 9

System: Pseudomonas aeruginosa
Experiment: Antimicrobial activity against Pseudomonas aeruginosa MTCC 1688 at 500 ug/ml after 24 hrs by cup plate method
Format: functional
Conditions: MTCC 1688, 24 h, read-out: IZ

Row | Compound | zone of inhibition at 500 µg/mL [mm]
15 | Nc1nc(=O)[nH]c2c1C(c1c(-c3ccccc3)[nH]c3ccc(Cl)cc13)C=C(c1ccc(Cl)cc1)O2 (configuration not stated) | 9

System: not listed separately
Experiment: Antioxidant activity assessed as metal chelating activity by measuring inhibition of ferrozine-Fe2+ complex formation at 25 to 100 ug/ml
Format: functional
Conditions: not given

Row | Compound | Activity
16 | Nc1nc(=O)[nH]c2c1C(c1c(-c3ccccc3)[nH]c3ccc(Cl)cc13)C=C(c1ccc(Cl)cc1)O2 (configuration not stated) | Active

System: Staphylococcus aureus
Experiment: Antimicrobial activity against Staphylococcus aureus ATCC 29513 at 500 ug/ml after 24 hrs by cup plate method
Format: functional
Conditions: ATCC 29513, 24 h, read-out: IZ

Row | Compound | zone of inhibition at 500 µg/mL [mm]
17 | Nc1nc(=O)[nH]c2c1C(c1c(-c3ccccc3)[nH]c3ccc(Cl)cc13)C=C(c1ccc(Cl)cc1)O2 (configuration not stated) | 13

System: Aspergillus niger
Experiment: Antimicrobial activity against Aspergillus niger MTCC 281 at 1000 ug/ml after 72 hrs by cup plate method
Format: functional
Conditions: MTCC 281, 72 h, read-out: IZ

Row | Compound | zone of inhibition at 1000 µg/mL [mm]
18 | Nc1nc(=O)[nH]c2c1C(c1c(-c3ccccc3)[nH]c3ccc(Cl)cc13)C=C(c1ccc(Cl)cc1)O2 (configuration not stated) | 13

System: Klebsiella pneumoniae
Experiment: Antimicrobial activity against Klebsiella pneumoniae NCTC 13368 at 1000 ug/ml after 24 hrs by cup plate method
Format: functional
Conditions: NCTC 13368, 24 h, read-out: IZ

Row | Compound | zone of inhibition at 1000 µg/mL [mm]
19 | Nc1nc(=O)[nH]c2c1C(c1c(-c3ccccc3)[nH]c3ccc(Cl)cc13)C=C(c1ccc(Cl)cc1)O2 (configuration not stated) | 9

System: Aspergillus terreus
Experiment: Antimicrobial activity against Aspergillus terreus MTCC 1782 at 500 ug/ml after 72 hrs by cup plate method
Format: functional
Conditions: MTCC 1782, 72 h, read-out: IZ

Row | Compound | zone of inhibition at 500 µg/mL [mm]
20 | Nc1nc(=O)[nH]c2c1C(c1c(-c3ccccc3)[nH]c3ccc(Cl)cc13)C=C(c1ccc(Cl)cc1)O2 (configuration not stated) | 9

System: Radical scavenging activity
Experiment: Antioxidant activity assessed as DPPH radical scavenging activity at 100 ug/ml
Format: functional
Conditions: not given

Row | Compound | Activity [%]
21 | Nc1nc(=O)[nH]c2c1C(c1c(-c3ccccc3)[nH]c3ccc(Cl)cc13)C=C(c1ccc(Cl)cc1)O2 (configuration not stated) | 75.5

System: Klebsiella pneumoniae
Experiment: Antimicrobial activity against Klebsiella pneumoniae NCTC 13368 at 500 ug/ml after 24 hrs by cup plate method
Format: functional
Conditions: NCTC 13368, 24 h, read-out: IZ

Row | Compound | zone of inhibition at 500 µg/mL [mm]
22 | Nc1nc(=O)[nH]c2c1C(c1c(-c3ccccc3)[nH]c3ccc(Cl)cc13)C=C(c1ccc(Cl)cc1)O2 (configuration not stated) | 9

System: not listed separately
Experiment: Antioxidant activity assessed as ferric ion reducing activity at 75 ug/ml by FRAP assay
Format: functional
Conditions: not given

Row | Compound | Activity
23 | Nc1nc(=O)[nH]c2c1C(c1c(-c3ccccc3)[nH]c3ccc(Cl)cc13)C=C(c1ccc(Cl)cc1)O2 (configuration not stated) | Active

System: Staphylococcus aureus
Experiment: Antimicrobial activity against Staphylococcus aureus ATCC 29513 at 750 ug/ml after 24 hrs by cup plate method
Format: functional
Conditions: ATCC 29513, 24 h, read-out: IZ

Row | Compound | zone of inhibition at 750 µg/mL [mm]
24 | Nc1nc(=O)[nH]c2c1C(c1c(-c3ccccc3)[nH]c3ccc(Cl)cc13)C=C(c1ccc(Cl)cc1)O2 (configuration not stated) | 13

System: Aspergillus terreus
Experiment: Antimicrobial activity against Aspergillus terreus MTCC 1782 at 1000 ug/ml after 72 hrs by cup plate method
Format: functional
Conditions: MTCC 1782, 72 h, read-out: IZ

Row | Compound | zone of inhibition at 1000 µg/mL [mm]
25 | Nc1nc(=O)[nH]c2c1C(c1c(-c3ccccc3)[nH]c3ccc(Cl)cc13)C=C(c1ccc(Cl)cc1)O2 (configuration not stated) | 9

System: Pseudomonas aeruginosa
Experiment: Antimicrobial activity against Pseudomonas aeruginosa MTCC 1688 at 1000 ug/ml after 24 hrs by cup plate method
Format: functional
Conditions: MTCC 1688, 24 h, read-out: IZ

Row | Compound | zone of inhibition at 1000 µg/mL [mm]
26 | Nc1nc(=O)[nH]c2c1C(c1c(-c3ccccc3)[nH]c3ccc(Cl)cc13)C=C(c1ccc(Cl)cc1)O2 (configuration not stated) | 9

System: Aspergillus flavus
Experiment: Antimicrobial activity against Aspergillus flavus MTCC 1973 at 750 ug/ml after 72 hrs by cup plate method
Format: functional
Conditions: MTCC 1973, 72 h, read-out: IZ

Row | Compound | zone of inhibition at 750 µg/mL [mm]
27 | Nc1nc(=O)[nH]c2c1C(c1c(-c3ccccc3)[nH]c3ccc(Cl)cc13)C=C(c1ccc(Cl)cc1)O2 (configuration not stated) | 6
